Measurements taken from patent US8835644B2, “Broad spectrum benzothiophene-nitrothiazolide and other antimicrobials” (University of Virginia Patent Foundation, priority 2009, dated 2014).
Converted amounts (≈) assume the structure as drawn. Counter-ions that a name gives are not always drawn. Like-named read-outs stand apart in the source and are kept apart here.

How the values were obtained:
H. pylori = assay: MIC testing by broth dilution, H. pylori; type: cell-based, Helicobacter pylori; details: 24 h, read-out: MIC (μM) H. pylori
Protocol: (§1) A standard broth dilution protocol was used in 96 well microplates containing a standard dilution of the microorganism to be tested in 100 microliters of the appropriate medium. Appropriate medium: E. coli, LB medium; Staphylococcus strains, Trypticase Soy; and for H. pylori and C. jejuni, Brain Heart Infusion. The compounds to be tested were set at 32 μg/ml in 200 microliters in well one and then serially diluted to provide a range from 32 to 0.06. The wells were scored visually at 24 h. The well where there was no growth was recorded as the MIC. Clostridium difficile was tested by agar diffusion and disk diffusion (Kirby Bower) methods under anaerobic conditions on Wilkins Chalgrin agar. In these assays, zone of inhibited growth was measured and compared by relative ratio to the zone recorded for NTZ.
(§2) Representative compounds of the invention were tested in a series of assays against a series of organisms as described above. […] The organisms tested include, C. difficile, H. pylori, C. jejuni, MRSA, S. epidermidis, and E. coli. S. epidermidis and E. coli were tested in the plank and biofilm assay. A disk diffusion assay was also used for C. difficile. Direct PFOR enzyme assays were also performed. All analogues and derivatives were not tested on every organism in every type of assay (the “-” in each table means that it was not tested).

C. jejuni = assay: MIC testing by broth dilution, C. jejuni; type: cell-based, Campylobacter jejuni; details: 24 h, read-out: MIC (μM) C. jejuni
Protocol: as §1, §2

MRSA = assay: MIC testing by broth dilution, MRSA; type: cell-based, Staphylococcus aureus; details: 24 h, read-out: MIC (μM) MRSA
Protocol: as §1, §2

S. epidermidis = assay: MIC testing by broth dilution, S. epidermidis plank; type: cell-based, Staphylococcus epidermidis; details: 24 h, read-out: MIC (μM) S. epidermidis Plank
Protocol: as §1, §2

S. epidermidis biofilm = S. epidermidis biofilm assay (activity tables); type: cell-based, Staphylococcus epidermidis
Protocol: Staphylococcal strains were cultured overnight in TSB at 37° C. with shaking, diluted in fresh medium to an OD600 of 0.01 and 200 W was dispensed into sterile flat bottom polystyrene 96 well microtiter plates (Costar 3596, Corning Inc.). […] Each compound and dilution was tested in triplicate. The plates were incubated overnight at 37° C. in a humidified incubator, without shaking and both growth and biofilm accumulation were determined at 16 h.
Following recording of turbidities, the culture medium was aspirated and the wells were washed three times with distilled water, blotted on paper towels, and fixed with 75% ethanol for 10 minutes.
To visualize biofilm material, 0.5% crystal violet was added to each well and after 5 minutes was removed and the wells washed three times with distilled water. Plates were read using a microplate reader at a wavelength of 570 nm. The dye was then extracted by adding 200 W of 95% ethanol, and the absorbance was read again at 570 nm. All assays were performed in triplicate and the mean and standard deviation determined. […]
as §2

E. coli = assay: MIC testing by broth dilution, E. coli plank; type: cell-based, Escherichia coli; details: 24 h, read-out: MIC (μM) E. coli Plank
Protocol: as §1, §2

E. coli biofilm = E. coli biofilm assay (activity tables); type: cell-based, Escherichia coli; details: read-out: MIC (μM) E. coli Biofilm
Protocol: A quantitative biofilm assay was used to determine the effect of NTZ on biofilm formation (41). Strain 042 was grown overnight at 37° C. with shaking and inoculated 1:100 in 200 μl culture medium in Costar 96-well, flat-bottom, polystyrene microtiter plates containing appropriate concentrations of NTZ. Plates were incubated statically at 37° C. in a humidified incubator. At 24 h, bacterial growth was measured by either transferring […] aliquots to another microtiter plate to determine turbidity or by diluting 100 μl aliquots 1:100 in 9.9 ml PBS for quantitative plate counts on LB medium. Bacterial counts in triplicate are reported as cfu/ml. Biofilm was visualized following staining with 0.5% crystal violet (41) and the absorbance was read at 570 nm using a microplate reader (Molecular Dynamics). All experiments were in triplicate and reported as mean and standard deviation.
as §1, §2

C. difficile = assay: Disk diffusion (Kirby Bower), C. difficile; type: cell-based, Clostridium difficile; details: zone of inhibited growth as relative ratio to the zone for NTZ
Protocol: as §1, §2

[1] = broth dilution, Brain Heart Infusion

SMILES	MIC (H. pylori; [1])	MIC (C. jejuni; [1])	MIC (MRSA; broth dilution, Trypticase Soy)	MIC (S. epidermidis; broth dilution, Trypticase Soy)	MIC (μM) S. epidermidis Biofilm (S. epidermidis biofilm)	MIC (E. coli; broth dilution, LB medium)	MIC (E. coli biofilm; biofilm)	Disk Diffusion (%) C. difficile (C. difficile)	MIC (H. pylori; Helicobacter pylori)	MIC (C. jejuni; Campylobacter jejuni)	MIC (MRSA; Staphylococcus aureus, MRSA)	MIC (S. epidermidis; Staphylococcus epidermidis)	MIC (E. coli; Escherichia coli)	MIC (E. coli biofilm; Escherichia coli)
CC1=C(C(=O)Nc2ncc([N+](=O)[O-])s2)Cc2ccccc21 [VPC16a1018]	0.7 µM (≈ 0.211 µg/mL)	10.7 µM (≈ 3.22 µg/mL)	106.2 µM (≈ 32 µg/mL)	106.2 µM (≈ 32 µg/mL)	26.5 µM (≈ 7.99 µg/mL)	106.2 µM (≈ 32 µg/mL)	53.1 µM (≈ 16 µg/mL)							
O=C(CCCc1ccccc1)Nc1ncc([N+](=O)[O-])s1 [VPC16a1020]	13.8 µM (≈ 4.02 µg/mL)	2.6 µM (≈ 0.757 µg/mL)	109.8 µM (≈ 32 µg/mL)	109.8 µM (≈ 32 µg/mL)		109.8 µM (≈ 32 µg/mL)	54.9 µM (≈ 16 µg/mL)	33 ± 3%						
Cl.N[C@H](C(=O)Nc1ncc([N+](=O)[O-])s1)c1ccccc1 [VPC16a1027]	76.3 µM	38.1 µM	101.7 µM	101.7 µM	101.7 µM	101.7 µM	25.4 µM							
N[C@@H](Cc1ccccc1)C(=O)Nc1ncc([N+](=O)[O-])s1 [VPC16a1028, (S)-2-Amino-N-(5-nitrothiazol-2-yl)-3-phenylpropanamide hydrochloride]					97.3 µM				18.3 µM	36.5 µM	97.3 µM	97.3 µM	97.3 µM	48.7 µM
NCCCC[C@H](N)C(=O)Nc1ncc([N+](=O)[O-])s1 [VPC16a1032]	69.3 µM (≈ 18.9 µg/mL)	92.4 µM (≈ 25.3 µg/mL)	92.4 µM (≈ 25.3 µg/mL)	92.4 µM (≈ 25.3 µg/mL)	92.4 µM (≈ 25.3 µg/mL)	92.4 µM (≈ 25.3 µg/mL)	0.1 µM (≈ 0.0273 µg/mL)							
CC(=O)Nc1ncc([N+](=O)[O-])s1 [VPC16a1033]	3.5 µM (≈ 0.655 µg/mL)	14.0 µM (≈ 2.62 µg/mL)	171.0 µM (≈ 32 µg/mL)	21.4 µM (≈ 4.01 µg/mL)	21.4 µM (≈ 4.01 µg/mL)	42.7 µM (≈ 7.99 µg/mL)	42.7 µM (≈ 7.99 µg/mL)							
O=C(CCc1ccccc1)Nc1ncc([N+](=O)[O-])s1 [VPC16b1030]	0.3 µM (≈ 0.0832 µg/mL)	1.30 µM (≈ 0.36 µg/mL)	115.4 µM (≈ 32 µg/mL)	14.4 µM (≈ 3.99 µg/mL)		115.4 µM (≈ 32 µg/mL)	50.5 µM (≈ 14 µg/mL)	54.5 ± 0.5%						
CCCCCCCCCC(=O)Nc1ncc([N+](=O)[O-])s1 [VPC16b1043]	1.2 µM (≈ 0.359 µg/mL)	3.9 µM (≈ 1.17 µg/mL)	106.9 µM (≈ 32 µg/mL)	106.9 µM (≈ 32 µg/mL)	1.7 µM (≈ 0.509 µg/mL)	106.9 µM (≈ 32 µg/mL)	106.9 µM (≈ 32 µg/mL)							
CCCC(=O)Nc1ncc([N+](=O)[O-])s1 [VPC16b1045]	0.5 µM (≈ 0.108 µg/mL)	2.1 µM (≈ 0.452 µg/mL)	148.7 µM (≈ 32 µg/mL)	37.2 µM (≈ 8.01 µg/mL)	4.6 µM (≈ 0.99 µg/mL)	148.7 µM (≈ 32 µg/mL)	148.7 µM (≈ 32 µg/mL)							
CC(C)(C(=O)Nc1ncc([N+](=O)[O-])s1)C(=O)Nc1ncc([N+](=O)[O-])s1 [VPC16b1048]	20.7 µM (≈ 8 µg/mL)	82.8 µM (≈ 32 µg/mL)	82.8 µM (≈ 32 µg/mL)	82.8 µM (≈ 32 µg/mL)	41.4 µM (≈ 16 µg/mL)	82.8 µM (≈ 32 µg/mL)	82.8 µM (≈ 32 µg/mL)							
CC(=O)Oc1cc(C#N)ccc1C(=O)Nc1ncc([N+](=O)[O-])s1 [VPC161076]	24.1 µM (≈ 8.01 µg/mL)	96.3 µM (≈ 32 µg/mL)	96.3 µM (≈ 32 µg/mL)	96.3 µM (≈ 32 µg/mL)	48.2 µM (≈ 16 µg/mL)	96.3 µM (≈ 32 µg/mL)	96.3 µM (≈ 32 µg/mL)							
O=C(Nc1ncc([N+](=O)[O-])s1)c1cccc([N+](=O)[O-])c1O [VPC161090]	19.3 µM (≈ 5.99 µg/mL)	103.1 µM (≈ 32 µg/mL)	103.1 µM (≈ 32 µg/mL)	77.4 µM (≈ 24 µg/mL)	6.4 µM (≈ 1.99 µg/mL)	103.1 µM (≈ 32 µg/mL)	103.1 µM (≈ 32 µg/mL)							
O=C(Nc1ncc([N+](=O)[O-])s1)c1ccc(F)cc1C(F)(F)F [VPC161127]	3.4 µM (≈ 1.14 µg/mL)	23.9 µM (≈ 8.01 µg/mL)	8.9 µM (≈ 2.98 µg/mL)	23.9 µM (≈ 8.01 µg/mL)	13.4 µM (≈ 4.49 µg/mL)	95.5 µM (≈ 32 µg/mL)	95.5 µM (≈ 32 µg/mL)							
O=C(Nc1ncc([N+](=O)[O-])s1)c1cccc(F)c1 [VPC161166]	0.9 µM (≈ 0.241 µg/mL)	11.2 µM (≈ 2.99 µg/mL)	16.8 µM (≈ 4.49 µg/mL)	22.5 µM (≈ 6.01 µg/mL)	59.9 µM (≈ 16 µg/mL)	119.7 µM (≈ 32 µg/mL)	59.9 µM (≈ 16 µg/mL)							
O=C(Nc1ncc([N+](=O)[O-])s1)c1ccc([N+](=O)[O-])cc1 [VPC161170]	1.3 µM (≈ 0.383 µg/mL)	13.6 µM (≈ 4 µg/mL)	20.4 µM (≈ 6 µg/mL)	10.2 µM (≈ 3 µg/mL)	3.4 µM (≈ 1 µg/mL)	81.6 µM (≈ 24 µg/mL)	108.8 µM (≈ 32 µg/mL)							
COc1ccc(-c2ccc(F)cc2F)cc1C(=O)Nc1ncc([N+](=O)[O-])s1 [VPC161171]	0.8 µM (≈ 0.313 µg/mL)	40.9 µM (≈ 16 µg/mL)	81.8 µM (≈ 32 µg/mL)	81.8 µM (≈ 32 µg/mL)	81.8 µM (≈ 32 µg/mL)	81.8 µM (≈ 32 µg/mL)	81.8 µM (≈ 32 µg/mL)							
N#Cc1cccc(C(=O)Nc2ncc([N+](=O)[O-])s2)c1 [VPC161173]	4.1 µM (≈ 1.12 µg/mL)	36.5 µM (≈ 10 µg/mL)	43.8 µM (≈ 12 µg/mL)	29.2 µM (≈ 8.01 µg/mL)	58.3 µM (≈ 16 µg/mL)	116.7 µM (≈ 32 µg/mL)	116.7 µM (≈ 32 µg/mL)							
O=C(O)CCCC(=O)Nc1ncc([N+](=O)[O-])s1 [VPC161273]	5.8 µM (≈ 1.5 µg/mL)	123.4 µM (≈ 32 µg/mL)	123.4 µM (≈ 32 µg/mL)		123.4 µM (≈ 32 µg/mL)	123.4 µM (≈ 32 µg/mL)	61.7 µM (≈ 16 µg/mL)							
CC(C)(C)OC(=O)N1CCC(C(=O)NCCOc2ccccc2C(=O)Nc2ncc([N+](=O)[O-])s2)CC1 [VPC162059]	0.7 µM (≈ 0.364 µg/mL)	61.6 µM (≈ 32 µg/mL)	61.6 µM (≈ 32 µg/mL)	61.6 µM (≈ 32 µg/mL)		61.6 µM (≈ 32 µg/mL)		38%						
Cl.NCCCCOc1ccccc1C(=O)Nc1ncc([N+](=O)[O-])s1 [VPC162096HCl]	2.0 µM	5.4 µM	85.8 µM	42.9 µM		85.8 µM		111%						
NCCCCOc1ccccc1C(=O)Nc1ncc([N+](=O)[O-])s1.O=C(O)C(F)(F)F [VPC162096TFA]	1.7 µM	6.7 µM	71.0 µM	35.5 µM		71.0 µM		111%						
Cl.NCCCOc1ccccc1C(=O)Nc1ncc([N+](=O)[O-])s1 [VPC162102HCl]	1.0 µM	8.4 µM	89.2 µM	44.6 µM		89.2 µM		74%						
NCCCOc1ccccc1C(=O)Nc1ncc([N+](=O)[O-])s1.O=C(O)C(F)(F)F [VPC162102TFA]	0.9 µM	13.8 µM	73.3 µM	73.3 µM		73.3 µM		79%						
